Columns and labels:
blackgrass = assay: Test A postemergence herbicide test; assay type: in vivo, Alopecurus myosuroides; conditions: for Plant response rating, Blackgrass: 125 g ai/ha, 0 to 100 scale, 0 is no effect, 100 is complete control; for Blackgrass plant response rating (0 to 100 scale, 0 is no effect, 100 is complete control): 500 g ai/ha
Summary of the method: (§1)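 Injury was rated visually about 10 days after treatment on a 0 (no effect) to 100 (complete control) scale, compared with untreated plants. Test chemicals were sprayed postemergence onto greenhouse plants 2–10 cm high at one to two leaves, grown in a loam–sand blend.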

corn = assay: Test A pre-/postemergence herbicide test; assay type: in vivo, Zea mays; conditions: Postemergence; for Plant response rating, Corn: 125 g ai/ha, 0 to 100 scale, 0 is no effect, 100 is complete control; for Corn plant response rating (0 to 100 scale, 0 is no effect, 100 is complete control): 500 g ai/ha
Summary of the method: (§2)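 Greenhouse pot test with pre- and postemergence application of surfactant-containing solvent formulations. Postemergence plants were 2–10 cm, one- to two-leaf stage. Response scored visually after ~10 days, 0 (no effect) to 100 (complete control).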

kochia = assay: Test A pre-/postemergence herbicide test; assay type: in vivo, Kochia scoparia; conditions: for Plant response rating, Kochia: 0 to 100 scale
Summary of the method: as §2

pigweed = assay: Test A pre-/postemergence herbicide test; assay type: in vivo, Amaranthus retroflexus; conditions: for Plant response rating, Pigweed: 0 to 100 scale
Summary of the method: as §2

galium = assay: Test A postemergence herbicide test; assay type: in vivo, Galium aparine; conditions: for Plant response rating, Galium: 125 g ai/ha, 0 to 100 scale, 0 is no effect, 100 is complete control; for Galium plant response rating (0 to 100 scale, 0 is no effect, 100 is complete control): 500 g ai/ha
Summary of the method: as §1

giant foxtail = assay: Test A pre-/postemergence herbicide test; assay type: in vivo, Setaria faberii; conditions: for Plant response rating, Foxtail, Giant: 0 to 100 scale
Summary of the method: as §2

barnyardgrass [1] = assay: Test B flooded paddy test; assay type: in vivo, Echinochloa crus-galli; conditions: Flood, scale of 0 to 100 where 0 is no effect and 100 is complete control
Summary of the method: (§3)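 Scored visually 0–100 (0 no effect, 100 complete control) versus controls after 13 to 15 greenhouse days. Treatment: compound added to paddy water kept 3 cm above soil, on 2-leaf-stage plants.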

wheat = assay: Test A pre-/postemergence herbicide test; assay type: in vivo, Triticum aestivum; conditions: Postemergence; for Plant response rating, Wheat: 125 g ai/ha, 0 to 100 scale, 0 is no effect, 100 is complete control; for Wheat plant response rating (0 to 100 scale, 0 is no effect, 100 is complete control): 500 g ai/ha
Summary of the method: as §2

ducksalad = assay: Test B flooded paddy test; assay type: in vivo, Heteranthera limosa; conditions: Flood, scale of 0 to 100 where 0 is no effect and 100 is complete control
Summary of the method: as §3

rice = assay: Test B flooded paddy test; assay type: in vivo, Oryza sativa; conditions: Flood, scale of 0 to 100 where 0 is no effect and 100 is complete control
Summary of the method: as §3

barnyardgrass [2] = assay: Test A pre-/postemergence herbicide test; assay type: in vivo, Echinochloa crus-galli; conditions: for Plant response rating, Barnyardgrass: 0 to 100 scale
Summary of the method: as §2

ragweed = assay: Test A pre-/postemergence herbicide test; assay type: in vivo, Ambrosia elatior; conditions: for Plant response rating, Ragweed: 0 to 100 scale
Summary of the method: as §2

sedge, umbrella = assay: Test B flooded paddy test; assay type: in vivo, Cyperus difformis; conditions: Flood, scale of 0 to 100 where 0 is no effect and 100 is complete control
Summary of the method: as §3

ryegrass, Italian = assay: Test A pre-/postemergence herbicide test; assay type: in vivo, Lolium multiflorum; conditions: for Plant response rating, Ryegrass, Italian: 0 to 100 scale
Summary of the method: as §2

[3] = 125 g ai/ha, visual rating, 0 no effect, 100 complete control, approximately 10 days, preemergence
[4] = Postemergence, 125 g ai/ha, 0 is no effect, 100 is complete control
[5] = preemergence, 500 g ai/ha, 0 is no effect and 100 is complete control

| SMILES | Plant response rating, Blackgrass (blackgrass) | Blackgrass plant response rating (0 to 100 scale, 0 is no effect, 100 is complete control) (blackgrass) | Plant response rating, Corn (corn) | Corn plant response rating (0 to 100 scale, 0 is no effect, 100 is complete control) (corn) | Plant response rating, Kochia (kochia; [3]) | Plant response rating, Kochia (kochia; [4]) | Kochia plant response rating (0 to 100 scale, 0 is no effect, 100 is complete control) (kochia; Postemergence, 500 g ai/ha) | Plant response rating, Kochia (kochia; [5]) | Plant response rating, Pigweed (pigweed; [3]) | Plant response rating, Pigweed (pigweed; [4]) | Pigweed plant response rating (0 to 100 scale, 0 is no effect, 100 is complete control) (pigweed; Postemergence, 500 g ai/ha) | Plant response rating, Pigweed (pigweed; [5]) | Plant response rating, Galium (galium) | Galium plant response rating (0 to 100 scale, 0 is no effect, 100 is complete control) (galium) | Plant response rating, Foxtail, Giant (giant foxtail; [3]) | Plant response rating, Foxtail, Giant (giant foxtail; [4]) | Foxtail, Giant plant response rating (0 to 100 scale, 0 is no effect, 100 is complete control) (giant foxtail; Postemergence, 500 g ai/ha) | Plant response rating, Foxtail, Giant (giant foxtail; [5]) | Plant response rating, Wheat (wheat) | Wheat plant response rating (0 to 100 scale, 0 is no effect, 100 is complete control) (wheat) | further results |
| --- | --- | --- | --- | --- | --- | --- | --- | --- | --- | --- | --- | --- | --- | --- | --- | --- | --- | --- | --- | --- | --- |
| O=C1NCC(c2cccc(S(F)(F)(F)(F)F)c2)C1C(=O)Nc1cccc(F)c1F (stereo not drawn) [Compound 214] | 40 | 70 | 30 | 50 | 0 | 0 | 40 | 80 | 0 | 0 | 50 | 70 | 40 | 70 | 80 | 80 | 90 | 90 | 0 | 50 | Plant response rating, Barnyardgrass (barnyardgrass [1]; 1000 g ai/ha): 75; Plant response rating, Ducksalad (ducksalad; 1000 g ai/ha): 90; Plant response rating, Rice (rice; 1000 g ai/ha): 20; Plant response rating, Barnyardgrass (barnyardgrass [2]; [3]): 70; Plant response rating, Barnyardgrass (barnyardgrass [2]; [4]): 60; Barnyardgrass plant response rating (0 to 100 scale, 0 is no effect, 100 is complete control) (barnyardgrass [2]; Postemergence, 500 g ai/ha): 70; Plant response rating, Barnyardgrass (barnyardgrass [2]; [5]): 80; Plant response rating, Ragweed (ragweed; [3]): 0; Plant response rating, Ragweed (ragweed; [4]): 0; Ragweed plant response rating (0 to 100 scale, 0 is no effect, 100 is complete control) (ragweed; Postemergence, 500 g ai/ha): 0; Plant response rating, Ragweed (ragweed; [5]): 0; Plant response rating, Sedge, Umbrella (sedge, umbrella; 1000 g ai/ha): 0; Plant response rating, Ryegrass, Italian (ryegrass, Italian; [3]): 0; Plant response rating, Ryegrass, Italian (ryegrass, Italian; [4]): 10; Ryegrass, Italian plant response rating (0 to 100 scale, 0 is no effect, 100 is complete control) (ryegrass, Italian; Postemergence, 500 g ai/ha): 30; Plant response rating, Ryegrass, Italian (ryegrass, Italian; [5]): 0 |
| O=C1NCC(c2cccc(S(F)(F)(F)(F)F)c2)C1C(=O)Nc1ccccc1C(F)(F)F (stereo not drawn) [Compound 215] | 30 | 50 | 0 | 0 | 0 | 0 | 0 | 0 | 0 | 50 | 60 | 50 | 40 | 60 | 80 | 80 | 80 | 90 | 0 | 0 | Plant response rating, Barnyardgrass (barnyardgrass [1]; 1000 g ai/ha): 60; Plant response rating, Ducksalad (ducksalad; 1000 g ai/ha): 80; Plant response rating, Rice (rice; 1000 g ai/ha): 0; Plant response rating, Barnyardgrass (barnyardgrass [2]; [3]): 60; Plant response rating, Barnyardgrass (barnyardgrass [2]; [4]): 50; Barnyardgrass plant response rating (0 to 100 scale, 0 is no effect, 100 is complete control) (barnyardgrass [2]; Postemergence, 500 g ai/ha): 60; Plant response rating, Barnyardgrass (barnyardgrass [2]; [5]): 80; Plant response rating, Ragweed (ragweed; [3]): 0; Plant response rating, Ragweed (ragweed; [4]): 0; Ragweed plant response rating (0 to 100 scale, 0 is no effect, 100 is complete control) (ragweed; Postemergence, 500 g ai/ha): 10; Plant response rating, Ragweed (ragweed; [5]): 0; Plant response rating, Sedge, Umbrella (sedge, umbrella; 1000 g ai/ha): 0; Plant response rating, Ryegrass, Italian (ryegrass, Italian; [3]): 0; Plant response rating, Ryegrass, Italian (ryegrass, Italian; [4]): 0; Ryegrass, Italian plant response rating (0 to 100 scale, 0 is no effect, 100 is complete control) (ryegrass, Italian; Postemergence, 500 g ai/ha): 0; Plant response rating, Ryegrass, Italian (ryegrass, Italian; [5]): 10 |
| O=C1NCC(c2cccc3ccccc23)C1C(=O)Nc1ccccc1F (stereo not drawn) [Compound 216] | 0 | 0 | 0 | 0 | 0 | 0 | 0 | 0 | 0 | 0 | 0 | 0 | 0 | 0 | 40 | 0 | 10 | 50 | 0 | 0 | Plant response rating, Barnyardgrass (barnyardgrass [1]; 500 g ai/ha): 0; Plant response rating, Ducksalad (ducksalad; 500 g ai/ha): 0; Plant response rating, Rice (rice; 500 g ai/ha): 0; Plant response rating, Barnyardgrass (barnyardgrass [2]; [3]): 20; Plant response rating, Barnyardgrass (barnyardgrass [2]; [4]): 0; Barnyardgrass plant response rating (0 to 100 scale, 0 is no effect, 100 is complete control) (barnyardgrass [2]; Postemergence, 500 g ai/ha): 0; Plant response rating, Barnyardgrass (barnyardgrass [2]; [5]): 60; Plant response rating, Ragweed (ragweed; [3]): 0; Plant response rating, Ragweed (ragweed; [4]): 0; Ragweed plant response rating (0 to 100 scale, 0 is no effect, 100 is complete control) (ragweed; Postemergence, 500 g ai/ha): 0; Plant response rating, Ragweed (ragweed; [5]): 0; Plant response rating, Sedge, Umbrella (sedge, umbrella; 500 g ai/ha): 0; Plant response rating, Ryegrass, Italian (ryegrass, Italian; [3]): 0; Plant response rating, Ryegrass, Italian (ryegrass, Italian; [4]): 0; Ryegrass, Italian plant response rating (0 to 100 scale, 0 is no effect, 100 is complete control) (ryegrass, Italian; Postemergence, 500 g ai/ha): 0; Plant response rating, Ryegrass, Italian (ryegrass, Italian; [5]): 0 |
| Cc1ccccc1NC(=O)C1C(=O)NCC1c1ccc(OC(F)F)cc1 (stereo not drawn) [Compound 227] | 0 | 40 | 0 | 0 | 20 | 0 | 40 | 20 | 0 | 0 | 0 | 20 | 0 | 0 | 80 | 30 | 80 | 90 | 0 | 0 | Plant response rating, Barnyardgrass (barnyardgrass [1]; 500 g ai/ha): 0; Plant response rating, Ducksalad (ducksalad; 500 g ai/ha): 90; Plant response rating, Rice (rice; 500 g ai/ha): 0; Plant response rating, Barnyardgrass (barnyardgrass [2]; [3]): 20; Plant response rating, Barnyardgrass (barnyardgrass [2]; [4]): 20; Barnyardgrass plant response rating (0 to 100 scale, 0 is no effect, 100 is complete control) (barnyardgrass [2]; Postemergence, 500 g ai/ha): 80; Plant response rating, Barnyardgrass (barnyardgrass [2]; [5]): 50; Plant response rating, Ragweed (ragweed; [3]): 0; Plant response rating, Ragweed (ragweed; [4]): 0; Ragweed plant response rating (0 to 100 scale, 0 is no effect, 100 is complete control) (ragweed; Postemergence, 500 g ai/ha): 0; Plant response rating, Ragweed (ragweed; [5]): 0; Plant response rating, Sedge, Umbrella (sedge, umbrella; 500 g ai/ha): 0; Plant response rating, Ryegrass, Italian (ryegrass, Italian; [3]): 0; Plant response rating, Ryegrass, Italian (ryegrass, Italian; [4]): 0; Ryegrass, Italian plant response rating (0 to 100 scale, 0 is no effect, 100 is complete control) (ryegrass, Italian; Postemergence, 500 g ai/ha): 20; Plant response rating, Ryegrass, Italian (ryegrass, Italian; [5]): 30 |
